Results: US20110212100A1, “METHODS FOR MODULATING DEVELOPMENT AND EXPANSION OF IL-17 EXPRESSING CELLS” (priority 2007, published 2011)

System: CD4+ CD25− T cells activated in Th17-priming conditions
Assay type: cell-based, mouse
Conditions: 10 nM HF vs MAZ1310, mean ± SD, triplicate

O=C(CC1NCCCC1O)Cn1cnc2cc(Br)c(Cl)cc2c1=O (racemic) [HF, 7-bromo-6-chloro-3-[3-(3-hydroxy-2-piperidinyl)-2-oxopropyl]-4(3H)-quinazolinone]
Aars transcript, fold increase HF vs. MAZ1310-3 hr (3 hr): 2.7 ± 0.4 fold | Aff1 transcript, fold increase HF vs. MAZ1310-3 hr (3 hr): 2.3 ± 0.4 fold | Aldh18a1 transcript, fold increase HF vs. MAZ1310-3 hr (3 hr): 2.1 ± 0.5 fold | Asns transcript, fold increase HF vs. MAZ1310-3 hr (3 hr): 6.1 ± 1.2 fold | Atf3 transcript, fold increase HF vs. MAZ1310-3 hr (3 hr): 3.0 ± 0.1 fold | Atf5 transcript, fold increase HF vs. MAZ1310-3 hr (3 hr): 2.4 ± 0.1 fold | Cars transcript, fold increase HF vs. MAZ1310-3 hr (3 hr): 2.2 ± 0.4 fold | Cd274 transcript, fold increase HF vs. MAZ1310-3 hr (3 hr): 2.1 ± 0.2 fold | Cebpb transcript, fold increase HF vs. MAZ1310-3 hr (3 hr): 3.9 ± 0.6 fold | Cebpg transcript, fold increase HF vs. MAZ1310-3 hr (3 hr): 2.5 ± 0.5 fold | Chd2 transcript, fold increase HF vs. MAZ1310-3 hr (3 hr): 2.2 ± 0.3 fold | Cldn12 transcript, fold increase HF vs. MAZ1310-3 hr (3 hr): 3.2 ± 0.7 fold | Clic4 transcript, fold increase HF vs. MAZ1310-3 hr (3 hr): 2.4 ± 0.2 fold | Cth transcript, fold increase HF vs. MAZ1310-3 hr (3 hr): 2.2 ± 0.7 fold | Cxcl10 transcript, fold increase HF vs. MAZ1310-3 hr (3 hr): 2.1 ± 0.3 fold | D8Ertd56e transcript, fold increase HF vs. MAZ1310-3 hr (3 hr): 2.1 ± 0.3 fold | Ddit3 transcript, fold increase HF vs. MAZ1310-3 hr (3 hr): 5.6 ± 1.1 fold | Et4Ebp1 transcript, fold increase HF vs. MAZ1310-3 hr (3 hr): 6.8 ± 1.8 fold | Gpt2 transcript, fold increase HF vs. MAZ1310-3 hr (3 hr): 10.0 ± 1.2 fold | Herpud1 transcript, fold increase HF vs. MAZ1310-3 hr (3 hr): 2.4 ± 0.3 fold | Icam1 transcript, fold increase HF vs. MAZ1310-3 hr (3 hr): 2.0 ± 0.1 fold | Irf1 transcript, fold increase HF vs. MAZ1310-3 hr (3 hr): 2.0 ± 0.3 fold | Lers transcript, fold increase HF vs. MAZ1310-3 hr (3 hr): 2.3 ± 0.3 fold | Mpa2l transcript, fold increase HF vs. MAZ1310-3 hr (3 hr): 2.3 ± 0.3 fold | Ncoa7 transcript, fold increase HF vs. MAZ1310-3 hr (3 hr): 3.0 ± 0.3 fold | Nfkbiz transcript, fold increase HF vs. MAZ1310-3 hr (3 hr): 2.0 ± 0.3 fold | Past1 transcript, fold increase HF vs. MAZ1310-3 hr (3 hr): 2.1 ± 0.5 fold | Pck2 transcript, fold increase HF vs. MAZ1310-3 hr (3 hr): 4.9 ± 0.8 fold | Pdcd1lg2 transcript, fold increase HF vs. MAZ1310-3 hr (3 hr): 3.2 ± 0.7 fold | Phgdh transcript, fold increase HF vs. MAZ1310-3 hr (3 hr): 3.8 ± 0.9 fold | Psph transcript, fold increase HF vs. MAZ1310-3 hr (3 hr): 3.5 ± 0.4 fold | Pvr transcript, fold increase HF vs. MAZ1310-3 hr (3 hr): 2.0 ± 0.3 fold | Pycr1 transcript, fold increase HF vs. MAZ1310-3 hr (3 hr): 4.6 ± 0.7 fold | Pycs transcript, fold increase HF vs. MAZ1310-3 hr (3 hr): 2.1 ± 0.2 fold | Sars1 transcript, fold increase HF vs. MAZ1310-3 hr (3 hr): 2.0 ± 0.3 fold | Sesn2 transcript, fold increase HF vs. MAZ1310-3 hr (3 hr): 2.6 ± 0.3 fold | Slamf7 transcript, fold increase HF vs. MAZ1310-3 hr (3 hr): 2.2 ± 0.4 fold | Slc1a4 transcript, fold increase HF vs. MAZ1310-3 hr (3 hr): 3.2 ± 0.9 fold | Slc6a9 transcript, fold increase HF vs. MAZ1310-3 hr (3 hr): 2.4 ± 0.3 fold | Slc7a3 transcript, fold increase HF vs. MAZ1310-3 hr (3 hr): 2.0 ± 0.2 fold | Slc14a1 transcript, fold increase HF vs. MAZ1310-3 hr (3 hr): 2.0 ± 0.1 fold | Trib3 transcript, fold increase HF vs. MAZ1310-3 hr (3 hr): 7.1 ± 2.0 fold | Trim12 transcript, fold increase HF vs. MAZ1310-3 hr (3 hr): 2.4 ± 0.1 fold | Vegfa transcript, fold increase HF vs. MAZ1310-3 hr (3 hr): 3.2 ± 0.2 fold | Xist transcript, fold increase HF vs. MAZ1310-3 hr (3 hr): 3.5 ± 1.7 fold | Aars transcript, fold increase HF vs. MAZ1310-6 hr (6 hr): 2.6 ± 0.2 fold | Aff1 transcript, fold increase HF vs. MAZ1310-6 hr (6 hr): 2.6 ± 0.3 fold | Aldh18a1 transcript, fold increase HF vs. MAZ1310-6 hr (6 hr): 2.7 ± 0.2 fold | Asns transcript, fold increase HF vs. MAZ1310-6 hr (6 hr): 7.1 ± 0.5 fold | Atf3 transcript, fold increase HF vs. MAZ1310-6 hr (6 hr): 3.2 ± 0.5 fold | Atf5 transcript, fold increase HF vs. MAZ1310-6 hr (6 hr): 8.9 ± 1.0 fold | Cars transcript, fold increase HF vs. MAZ1310-6 hr (6 hr): 2.2 ± 0.3 fold | Cd274 transcript, fold increase HF vs. MAZ1310-6 hr (6 hr): 2.0 ± 0.1 fold | Cebpb transcript, fold increase HF vs. MAZ1310-6 hr (6 hr): 8.0 ± 0.2 fold | Cebpg transcript, fold increase HF vs. MAZ1310-6 hr (6 hr): 3.1 ± 0.5 fold | Chd2 transcript, fold increase HF vs. MAZ1310-6 hr (6 hr): 2.5 ± 0.5 fold | Cldn12 transcript, fold increase HF vs. MAZ1310-6 hr (6 hr): 4.6 ± 0.5 fold | Clic4 transcript, fold increase HF vs. MAZ1310-6 hr (6 hr): 2.8 ± 0.2 fold | Cth transcript, fold increase HF vs. MAZ1310-6 hr (6 hr): 16.0 ± 1.6 fold | Cxcl10 transcript, fold increase HF vs. MAZ1310-6 hr (6 hr): 2.1 ± 0.1 fold | D8Ertd56e transcript, fold increase HF vs. MAZ1310-6 hr (6 hr): 3.1 ± 0.8 fold | Ddit3 transcript, fold increase HF vs. MAZ1310-6 hr (6 hr): 5.0 ± 0.7 fold | Et4Ebp1 transcript, fold increase HF vs. MAZ1310-6 hr (6 hr): 5.3 ± 0.3 fold | Gpt2 transcript, fold increase HF vs. MAZ1310-6 hr (6 hr): 16.7 ± 2.2 fold | Herpud1 transcript, fold increase HF vs. MAZ1310-6 hr (6 hr): 2.7 ± 0.1 fold | Icam1 transcript, fold increase HF vs. MAZ1310-6 hr (6 hr): 2.8 ± 0.3 fold | Irf1 transcript, fold increase HF vs. MAZ1310-6 hr (6 hr): 2.6 ± 0.2 fold | Lers transcript, fold increase HF vs. MAZ1310-6 hr (6 hr): 2.1 ± 0.0 fold | Mpa2l transcript, fold increase HF vs. MAZ1310-6 hr (6 hr): 7.3 ± 1.7 fold | Ncoa7 transcript, fold increase HF vs. MAZ1310-6 hr (6 hr): 3.2 ± 0.5 fold | Nfkbiz transcript, fold increase HF vs. MAZ1310-6 hr (6 hr): 1.9 ± 0.3 fold | Past1 transcript, fold increase HF vs. MAZ1310-6 hr (6 hr): 2.6 ± 0.0 fold | Pck2 transcript, fold increase HF vs. MAZ1310-6 hr (6 hr): 7.4 ± 0.9 fold | Pdcd1lg2 transcript, fold increase HF vs. MAZ1310-6 hr (6 hr): 2.5 ± 0.3 fold | Phgdh transcript, fold increase HF vs. MAZ1310-6 hr (6 hr): 4.2 ± 0.3 fold | Psph transcript, fold increase HF vs. MAZ1310-6 hr (6 hr): 3.4 ± 0.3 fold | Pvr transcript, fold increase HF vs. MAZ1310-6 hr (6 hr): 2.0 ± 0.1 fold | Pycr1 transcript, fold increase HF vs. MAZ1310-6 hr (6 hr): 6.6 ± 0.4 fold | Pycs transcript, fold increase HF vs. MAZ1310-6 hr (6 hr): 2.3 ± 0.1 fold | Sars1 transcript, fold increase HF vs. MAZ1310-6 hr (6 hr): 2.3 ± 0.1 fold | Sesn2 transcript, fold increase HF vs. MAZ1310-6 hr (6 hr): 2.3 ± 0.2 fold | Slamf7 transcript, fold increase HF vs. MAZ1310-6 hr (6 hr): 2.1 ± 0.2 fold | Slc1a4 transcript, fold increase HF vs. MAZ1310-6 hr (6 hr): 4.6 ± 0.4 fold | Slc6a9 transcript, fold increase HF vs. MAZ1310-6 hr (6 hr): 5.7 ± 0.6 fold | Slc7a3 transcript, fold increase HF vs. MAZ1310-6 hr (6 hr): 6.5 ± 0.9 fold | Slc14a1 transcript, fold increase HF vs. MAZ1310-6 hr (6 hr): 6.6 ± 0.4 fold | Trib3 transcript, fold increase HF vs. MAZ1310-6 hr (6 hr): 18.5 ± 8.5 fold | Trim12 transcript, fold increase HF vs. MAZ1310-6 hr (6 hr): 4.9 ± 0.7 fold | Vegfa transcript, fold increase HF vs. MAZ1310-6 hr (6 hr): 5.8 ± 0.5 fold | Xist transcript, fold increase HF vs. MAZ1310-6 hr (6 hr): 2.1 ± 0.7 fold
